Molecules are shown by their SMILES. The source made the active and inactive calls.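 The calls were made as follows: active = IC50 at or below 10 µM; inactive = IC50 above 10 µM.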

This assay concerns the target Induced myeloid leukemia cell differentiation protein Mcl-1 (Homo sapiens) (UniProt Q07820). Nature of the assay: blockers of MCL1–BIM BH3 interaction – biochemical, fluorescence polarization, assay provider data, powder samples, late-stage follow-up (AID 493086). Conditions: GST-MCL1 / FITC-BIM-BH3 fluorescence polarization.

Chain of Induced myeloid leukemia cell differentiation protein Mcl-1 (Homo sapiens) (Q07820 whole entry, looked up): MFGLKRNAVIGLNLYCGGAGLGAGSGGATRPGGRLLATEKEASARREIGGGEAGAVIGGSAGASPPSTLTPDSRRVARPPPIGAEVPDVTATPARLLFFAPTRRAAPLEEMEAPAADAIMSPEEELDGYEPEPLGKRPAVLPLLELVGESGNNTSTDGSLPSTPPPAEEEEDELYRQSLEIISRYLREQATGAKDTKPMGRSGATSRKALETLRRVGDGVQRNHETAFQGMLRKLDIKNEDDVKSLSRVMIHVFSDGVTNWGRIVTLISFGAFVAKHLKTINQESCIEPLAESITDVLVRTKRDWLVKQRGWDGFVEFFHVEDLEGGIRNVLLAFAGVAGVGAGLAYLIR

In the case of `O=C(NCCCN1CCOCC1)c1cc(-c2ccco2)nc2ccccc12`, the IC50 was > 20 µM (inactive).
The value for `O=C(NCC1CCCO1)c1cc(-c2ccco2)nc2ccccc12` (stereo not given) was “inactive”; that for `CCCC(=O)Nc1nnc(Cc2ccccc2)s1` was > 20 µM (inactive).
The value for `O=C(Nc1cccc(F)c1)c1cc(-c2ccco2)nc2ccccc12` was > 20 µM (inactive).
Turning to `COCCN(C(=O)c1cc(-c2ccco2)nc2ccccc12)c1c(N)n(Cc2ccccc2)c(=O)[nH]c1=O`, the IC50 was 3.4 µM.
As for `CC(C)CCNC(=O)c1cc(-c2ccco2)nc2ccccc12`, the IC50 was > 20 µM (inactive).
The result for `COc1ccc(Cc2nnc(NC(=O)Cc3ccsc3)s2)cc1OC` reads > 20 µM (inactive); that for `CCCCCCNC(=O)c1cc(-c2ccco2)nc2ccccc12`, > 20 µM (inactive); that for `Cc1ccc(-c2cc(C(=O)Nc3nccs3)c3ccccc3n2)o1`, > 20 µM (inactive).
Turning to `Cc1ccc(-c2cc(C(=O)Nc3cccnc3)c3ccccc3n2)o1`, the IC50 result is “inactive”.
The result for `Cc1cccc(NC(=O)c2cc(-c3ccco3)nc3ccccc23)n1` reads “inactive”.
On to `O=C(Nc1nncs1)c1cc(-c2ccco2)nc2ccccc12`, for which the IC50 entry is “inactive”.
The value for `CCCCn1c(N)c(N(CC(C)C)C(=O)c2cc(-c3ccco3)nc3ccccc23)c(=O)[nH]c1=O` was > 20 µM (inactive).
Consider `CCCCn1c(N)c(N(CCC(C)C)C(=O)c2cc(-c3ccco3)nc3ccccc23)c(=O)[nH]c1=O`, for which the IC50 was > 20 µM (inactive).
On to `CN(C)C(CNC(=O)c1cc(-c2ccco2)nc2ccccc12)c1ccccc1` (stereo not given), for which the IC50 was > 20 µM (inactive).
The result for `Cc1ccc(-c2cc(C(=O)N3CCCC(C(F)(F)F)C3)c3ccccc3n2)o1` (stereo not given) reads > 20 µM (inactive); that for `COc1ccc(NC(=O)c2cc(-c3ccco3)nc3ccccc23)cc1S(=O)(=O)N1CCOCC1`, “inactive”; that for `CCCN(C(=O)c1cc(-c2ccco2)nc2ccccc12)c1c(N)n(Cc2ccccc2)c(=O)[nH]c1=O`, “inactive”.
`O=C(Nc1nc2ccccc2s1)c1cc(-c2ccco2)nc2ccccc12`: the IC50 is > 20 µM (inactive).
The result for `COc1ccc(CC(=O)Nc2nnc(Cc3ccc(OC)c(OC)c3)s2)cc1` reads > 20 µM (inactive); that for `COc1ccc(NC(=O)c2cc(-c3ccco3)nc3ccccc23)cc1`, > 20 µM (inactive); that for `Cc1ccc(-c2cc(C(=O)Nc3ccccc3C(N)=O)c3ccccc3n2)o1`, > 20 µM (inactive).
Take `O=C(Nc1ccccc1F)c1cc(-c2ccco2)nc2ccccc12`: the IC50 result is “inactive”.
The value for `COc1ccc(NC(=O)c2cc(-c3ccc(C)o3)nc3ccccc23)cc1OC` was > 20 µM (inactive).
With `COc1cccc(NC(=O)CN(C)C(=O)c2cc(-c3ccco3)nc3ccccc23)c1`, the IC50 is > 20 µM (inactive).
On to `CCCn1c(N)c(N(CCOC)C(=O)c2cc(-c3ccco3)nc3ccccc23)c(=O)[nH]c1=O`, for which the IC50 was > 20 µM (inactive).
For the compound `CCCCN(C(=O)c1cc(-c2ccco2)nc2ccccc12)c1c(N)n(CCC)c(=O)[nH]c1=O`, the IC50 was > 20 µM (inactive).
With `COc1ccc(CCNC(=O)c2cc(-c3ccco3)nc3ccccc23)cc1`, the IC50 was > 20 µM (inactive).
The result for `COc1cccc(NC(=O)c2cc(-c3ccc(C)o3)nc3ccccc23)c1` reads > 20 µM (inactive); that for `COc1ccc(Cc2nnc(NC(=O)C(=O)c3ccco3)s2)cc1OC`, > 20 µM (inactive); that for `COc1cccc(NC(=O)CN(C)C(=O)c2cc(-c3ccc(C)o3)nc3ccccc23)c1`, > 20 µM (inactive).
Turning to `Cc1csc(NC(=O)c2cc(-c3ccco3)nc3ccccc23)n1`, the IC50 result was “inactive”.
As for `Cc1ccc(-c2cc(C(=O)N3CC(C)OC(C)C3)c3ccccc3n2)o1` (stereo not given), the IC50 is > 20 µM (inactive).
On to `COc1ccc(Cc2nnc(NC(=O)Cc3ccc(-c4ccccc4)cc3)s2)cc1OC`, for which the IC50 is > 20 µM (inactive).
The value for `Cc1ccc(-c2cc(C(=O)N3CCOCC3)c3ccccc3n2)o1` was > 20 µM (inactive); that for `Cc1ccc(-c2cc(C(=O)N(C)CC(=O)Nc3ccccc3Br)c3ccccc3n2)o1` was > 20 µM (inactive).
As to `COc1ccc(Cc2nnc(NC(=O)Cc3ccc4ccccc4c3)s2)cc1OC`, the IC50 is > 20 µM (inactive).
With `CC1CCCN(C(=O)c2cc(-c3ccco3)nc3ccccc23)C1` (stereo not given), the IC50 is > 20 µM (inactive).
Consider `COc1ccc(Cc2nnc(NC(=O)Cc3ccc(C)cc3)s2)cc1OC`, for which the IC50 is > 20 µM (inactive).
On to `COc1ccc(Cc2nnc(NC(=O)Cc3ccccc3C)s2)cc1OC`, for which the IC50 is > 20 µM (inactive).
In the case of `O=C(Nc1cccc(S(=O)(=O)NC2=NCCC2)c1)c1cc(-c2ccco2)nc2ccccc12`, the IC50 result was “inactive”.
With `O=C(c1cc(-c2ccco2)nc2ccccc12)N(Cc1nnc(-c2ccc(Cl)cc2)o1)C1CC1`, the IC50 was > 20 µM (inactive).
As to `COc1ccc(Cc2nnc(NC(=O)Cc3ccc4c(c3)OCO4)s2)cc1OC`, the IC50 is > 20 µM (inactive).
Turning to `CCN1CCN(C(=O)c2cc(-c3ccco3)nc3ccccc23)CC1`, the IC50 was 6.7 µM.
Take `O=C(CCn1nnc2ccccc21)Nc1nnc(Cc2ccccc2)s1`: the IC50 was > 20 µM (inactive).
For the compound `O=C(c1cc(-c2ccco2)nc2ccccc12)N1CCN(Cc2ccccc2)CC1`, the IC50 is > 20 µM (inactive).
`COc1ccc(Cc2nnc(NC(=O)Cc3ccncc3)s2)cc1OC`: the IC50 was > 20 µM (inactive).
Consider `COc1ccc(Cc2nnc(NC(=O)Cc3ccccn3)s2)cc1OC`, for which the IC50 was > 20 µM (inactive).
`O=C(c1cc(-c2ccco2)nc2ccccc12)N1CCN(c2ccc(F)cc2)CC1`: the IC50 was > 20 µM (inactive).
As for `CN(CCOc1ccc(Cl)cc1)C(=O)c1cc(-c2ccco2)nc2ccccc12`, the IC50 was > 20 µM (inactive).
As for `Cc1ccc(NC(=O)c2cc(-c3ccc(C)o3)nc3ccccc23)cc1`, the IC50 is > 20 µM (inactive).
Regarding `CCOC(=O)c1cc(-c2ccco2)nc2c1c(C)nn2-c1ccccc1`, the IC50 is > 20 µM (inactive).
The value for `CCOC(=O)c1cc(-c2ccco2)nc2c1c(C)nn2-c1cccc(Cl)c1` was > 20 µM (inactive).
As to `Cc1ccc(-c2cc(C(=O)Nc3ccccn3)c3ccccc3n2)o1`, the IC50 entry was “inactive”.
As to `COc1ccccc1NC(=O)c1cc(-c2ccc(C)o2)nc2ccccc12`, the IC50 is > 20 µM (inactive).
With `O=C(NC(=S)Nc1cccc(S(=O)(=O)NC2=NCCC2)c1)c1cc(-c2ccco2)nc2ccccc12`, the IC50 is > 20 µM (inactive).
For the compound `O=C(Nc1nccs1)c1cc(-c2ccco2)nc2ccccc12`, the IC50 entry is “inactive”.
In the case of `COc1ccc(Cc2nnc(NC(=O)Cc3csc4ccccc34)s2)cc1OC`, the IC50 is > 20 µM (inactive).
In the case of `CC(=O)N1CCN(C(=O)c2cc(-c3ccc(C)o3)nc3ccccc23)CC1`, the IC50 is > 20 µM (inactive).
The result for `Cc1ccc(-c2cc(C(=O)N3CC(C)CC(C)C3)c3ccccc3n2)o1` (stereo not given) reads > 20 µM (inactive).
The value for `CN(CCOc1ccccc1)C(=O)c1cc(-c2ccco2)nc2ccccc12` was > 20 µM (inactive).
In the case of `COc1ccc(NC(=O)CN(C)C(=O)c2cc(-c3ccc(C)o3)nc3ccccc23)cc1`, the IC50 is > 20 µM (inactive).
On to `NS(=O)(=O)c1ccc(CCNC(=O)c2cc(-c3ccco3)nc3ccccc23)cc1`, for which the IC50 was > 20 µM (inactive).
On to `Cc1ccc(-c2cc(C(=O)Nc3cccc(S(=O)(=O)N(C)C)c3)c3ccccc3n2)o1`, for which the IC50 was > 20 µM (inactive).
On to `Cc1ccc(-c2cc(C(=O)N3CCN(c4ncccn4)CC3)c3cc(Br)ccc3n2)o1`, for which the IC50 entry was “inactive”.
Consider `Cc1ccc(-c2cc(C(=O)NCC(c3ccccc3)N(C)C)c3ccccc3n2)o1` (stereo not given), for which the IC50 is > 20 µM (inactive).
For the compound `Cc1ccc(-c2cc(C(=O)N3CCN(c4ccccc4O)CC3)c3ccccc3n2)o1`, the IC50 is > 20 µM (inactive).
On to `COCCCN(C(=O)c1cc(-c2ccco2)nc2ccccc12)c1c(N)n(Cc2ccccc2)c(=O)[nH]c1=O`, for which the IC50 is > 20 µM (inactive).
The value for `Cc1ccc(-c2cc(C(=O)N3CCN(c4ccc(F)cc4)CC3)c3ccccc3n2)o1` was > 20 µM (inactive); that for `COc1ccc(Cc2nnc(NC(=O)Cc3sc(=S)[nH]c3C)s2)cc1OC` was > 20 µM (inactive).
For the compound `O=C(Nc1ccc(F)cc1F)c1cc(-c2ccco2)nc2ccccc12`, the IC50 is > 20 µM (inactive).
The result for `COc1ccccc1CC(=O)Nc1nnc(Cc2ccc(OC)c(OC)c2)s1` reads > 20 µM (inactive); that for `Cc1ccc(NC(=O)c2cc(-c3ccco3)nc3ccccc23)cc1S(=O)(=O)N1CCOCC1`, “inactive”; that for `Cc1ccc(NC(=O)c2cc(-c3ccc(C)o3)nc3ccccc23)nc1`, “inactive”.
Regarding `O=C(CCn1nnc2ccccc21)Nc1nnc(Cc2ccc(F)cc2)s1`, the IC50 was > 20 µM (inactive).
On to `O=C(NC1CC1)c1cc(-c2ccco2)nc2ccccc12`, for which the IC50 is 4.4 µM.
Consider `COc1cccc(CC(=O)Nc2nnc(Cc3ccc(OC)c(OC)c3)s2)c1`, for which the IC50 is > 20 µM (inactive).
The value for `COc1ccc(Cc2nnc(NC(=O)Cc3cccs3)s2)cc1` was > 20 µM (inactive); that for `COc1ccc(Cc2nnc(NC(=O)Cc3c[nH]c4ccccc34)s2)cc1OC` was > 20 µM (inactive).
For `COc1cccc(NC(=O)c2cc(-c3ccco3)nc3ccccc23)c1`, the IC50 is > 20 µM (inactive).
With `COc1ccc(Cc2nnc(NC(=O)Cc3cccnc3)s2)cc1OC`, the IC50 is > 20 µM (inactive).
The result for `CC(=O)c1cccc(NC(=O)c2cc(-c3ccco3)nc3ccccc23)c1` reads > 20 µM (inactive); that for `CCOC(=O)C1CCCN(C(=O)c2cc(-c3ccco3)nc3ccccc23)C1` (stereo not given), 5.5 µM; that for `CCc1nnc(NC(=O)c2cc(-c3ccco3)nc3ccccc23)s1`, “inactive”.
Take `Cc1nnc(NC(=O)c2cc(-c3ccco3)nc3ccccc23)s1`: the IC50 result is “inactive”.

The values are drawn from PubChem BioAssay AID493086 (The Scripps Research Institute Molecular Screening Center, 2011).
